# Assay results from patent publication US5482970A (priority 1993, dated 1996).
# What was measured:
# [1] = In vitro skin permeation and metabolism, two-compartment diffusion cell (Example 6); assay type: in vitro ADME, hairless mouse (HRS/J strain); conditions: for metabolised at 5 h: mouse, of total permeated, read-out: % Metabolite; for Transdermal Flux Q1, Inocoterone: metabolite from applied inocoterone acetate
# Description: (§1) The freshly excised hairless mouse skin was used in the two-compartment diffusion cell method of Chlen et at., Drug Development and Industrial Pharmacy, 11, […] (1985). The hairless mouse (HRS/J strain) was sacrificed just prior to the experiment by cervical dislocation. A square section of the abdominal skin was surgically removed and mounted between two side-by-side half cells; the exposed area of the skin being approximately 0.64 cm^2. A 1-10% weight/volume (w/v) solution of inocoterone acetate and vehicle was added to the donor compartment and a 40% w/v polyethylene glycol 400/normal saline solution was added to the receptor compartment. Simultaneous skin permeation and biotransformation studies Were conducted in a thermostated diffusion cell apparatus at 37° C. At appropriate intervals samples were withdrawn from the receptor compartment and analyzed for inocoterone acetate and its metabolite, inocoterone, by high pressure liquid chromatography. […] Each experiment was carried out in at least triplicate. This method was used in Examples 3 to 6.
# Compositions of 10% w/v of inocoterone acetate in vehicle solutions were prepared by dissolving 1 g of the medicament in 10 ml of a mixture of isopropyl myristate and 95% ethanol in the following volume percent ratios: 100:0, 95:5, 70:30, 60:40, 50:50, 40:60, 30:70, 5:95 and 0:100, respectively. The in vitro skin permeation and metabolism rates were measured using the method described under the in vitro skin permeation test method. The results of these measurements, in terms of the cumulative mount of unchanged medicament and its metabolite permeated in μmoles per square centimeter with time, over 5 hours are given in FIG. 1.
# In this example, the results of the use of ethanol as the polar organic solvent in combination with various fatty acid esters for the simultaneous skin permeation and metabolism of inocoterone acetate solution are shown.
# [2] = In vitro skin permeation and metabolism of Carbopol 940 gels, Franz diffusion cell (Example 13); assay type: in vitro ADME, hairless mouse; conditions: for metabolised at 5 h: mouse, read-out: % Metabolite; for Transdermal Flux Q1, Inocoterone: metabolite
# Procedure: For the evaluation of pharmaceutical compositions of the present invention, the freshly excised hairless mouse skin was used in the diffusion cell method of Franz, Current Problems in Dermatology, 7, 58-68 (1978), in a vertical position, the exposed area of the skin being approximately 1.8 cm^2. The pharmaceutical formulation of known concentration in vehicle was added to the upper compartment of the cell, which was exposed to the stratum corneum side of the skin, and a 40% polyethylene glycol 400/normal saline solution was placed in the lower compartment The penetration and metabolism rates were studied in a thermostated diffusion cell at 37° C. using the analytical method described above. Each experiment was carried out in at least triplicate. This method was used in Examples 7 and 13.
# In this example the simultaneous skin permeation and metabolism rates of inocoterone acetate incorporated in the Carbopol 940 gels formulated using the compositions described in Example 7 are shown.
# rat sebaceous gland = assay: In vivo antiandrogen activity test, rat: volume density of smooth endoplasmic reticulum of the sebaceous gland
# prostate = assay: In vivo antiandrogen activity test, rat: prostate (systemic effect)
# [3] = Hydrolysis in blank receptor solution; assay type: physicochemical; conditions: 40% w/v polyethylene glycol 400/normal saline, 37° C., time course of permeation experiment
# Description: as §1
# [4] = vehicle 10% Butyl laurate-90% Ethanol
# [5] = vehicle 10% Ethyl laurate-90% Ethanol
# [6] = vehicle 10% Ethyl oleate-90% Ethanol
# [7] = vehicle 10% Isopropyl palmitate-90% Ethanol
# [8] = vehicle 10% Propyl laurate-90% Ethanol
# [9] = Carbopol 940 gel: inocoterone acetate 10.0, butyl laurate 6.0, ethanol 50.0% w/w
# [10] = Carbopol 940 gel: inocoterone acetate 10.0, ethyl laurate 6.0, ethanol 50.0% w/w
# [11] = Carbopol 940 gel: inocoterone acetate 10.0, isopropyl myristate 6.0, ethanol 50.0% w/w
compound,measurement,setting,value
"CCC1=C2CC[C@]3(C)[C@@H](OC(C)=O)CC[C@H]3[C@@H]2CCC1=O [Inocoterone acetate, 3β-acetoxy-6-ethyl-3αβ-methyl-1,2,3,3a, 4,5,8,9,9a,9b-decahydro-7H-benz(e)inden-7-one]",transcutaneous penetration,"[1]; isopropyl myristate-ethanol mixture, Example 3",increased transcutaneous penetration
same,metabolised at 5 h,[1]; [4],57.7%
same,metabolised at 5 h,[1]; [5],67.5%
same,metabolised at 5 h,[1]; [6],66.4%
same,metabolised at 5 h,[1]; [7],74.5%
same,metabolised at 5 h,[1]; [8],70.2%
same,metabolised at 5 h,[1]; vehicle Ethanol,100%
same,"Transdermal Flux Q1, Inocoterone Acetate",[1]; [4],39.9 × 10^2 μmoles/cm^2 /5 hrs
same,"Transdermal Flux Q1, Total Inocoterone",[1]; [4],94.4 × 10^2 μmoles/cm^2 /5 hrs
same,"Transdermal Flux Q1, Inocoterone Acetate",[1]; [5],28.1 × 10^2 μmoles/cm^2 /5 hrs
same,"Transdermal Flux Q1, Total Inocoterone",[1]; [5],86.4 × 10^2 μmoles/cm^2 /5 hrs
same,"Transdermal Flux Q1, Inocoterone Acetate",[1]; [6],18.5 × 10^2 μmoles/cm^2 /5 hrs
same,"Transdermal Flux Q1, Total Inocoterone",[1]; [6],55.1 × 10^2 μmoles/cm^2 /5 hrs
same,"Transdermal Flux Q1, Inocoterone Acetate",[1]; [7],9.4 × 10^2 μmoles/cm^2 /5 hrs
same,"Transdermal Flux Q1, Total Inocoterone",[1]; [7],36.9 × 10^2 μmoles/cm^2 /5 hrs
same,"Transdermal Flux Q1, Inocoterone Acetate",[1]; [8],25.8 × 10^2 μmoles/cm^2 /5 hrs
same,"Transdermal Flux Q1, Total Inocoterone",[1]; [8],86.6 × 10^2 μmoles/cm^2 /5 hrs
same,"Transdermal Flux Q1, Inocoterone Acetate",[1]; vehicle Ethanol,0 × 10^2 μmoles/cm^2 /5 hrs
same,"Transdermal Flux Q1, Total Inocoterone",[1]; vehicle Ethanol,1.1 × 10^2 μmoles/cm^2 /5 hrs
same,"Transdermal Flux Q1, Inocoterone Acetate",[2]; [9],45.2 × 10^2 μmoles/cm^2 /5 hours
same,"Transdermal Flux Q1, Total Inocoterone",[2]; [9],111.4 × 10^2 μmoles/cm^2 /5 hours
same,"Transdermal Flux Q1, Inocoterone Acetate",[2]; [10],38.4 × 10^2 μmoles/cm^2 /5 hours
same,"Transdermal Flux Q1, Total Inocoterone",[2]; [10],91.1 × 10^2 μmoles/cm^2 /5 hours
same,"Transdermal Flux Q1, Inocoterone Acetate",[2]; [11],36.2 × 10^2 μmoles/cm^2 /5 hours
same,"Transdermal Flux Q1, Total Inocoterone",[2]; [11],99.0 × 10^2 μmoles/cm^2 /5 hours
same,metabolised at 5 h,[2]; [9],59.4%
same,metabolised at 5 h,[2]; [10],57.8%
same,metabolised at 5 h,[2]; [11],63.4%
same,inhibition of testosterone-induced increase in volume density of smooth endoplasmic reticulum vesicles in intermediate cells of sebaceous gland,"rat sebaceous gland; 40% isopropyl myristate-60% ethanol, 0.5 mg/cm^2/day, 5 days, 5 cm^2, testosterone propionate-treated castrated rats",completely inhibited
same,inhibition of the effects of testosterone on the sebaceous gland,"rat sebaceous gland; ethanol vehicle, 0.5 mg/cm^2/day, 5 days, 5 cm^2, testosterone propionate-treated castrated rats",60%
same,volume density of smooth endoplasmic reticulum (SER),"rat sebaceous gland; intact rats and castrated rats stimulated with testosterone propionate, topical, 0.25 to 25 mg/rat/day, 1 to 3 weeks",dose related reduction in volume density of SER
same,efficacy in isopropyl myristate-ethanol mixture,rat sebaceous gland; isopropyl myristate-ethanol mixture compared with ethanol,greater efficacy
same,effect on prostate weight,"prostate; intact and castrated testosterone propionate-treated rats, topical, any dose (0.25 to 25 mg/rat/day)",no significant effect on prostate weight at any dose
same,systemic antiandrogenic effect as evidenced by changes in the prostate,"prostate; isopropyl myristate-ethanol mixture, topical 0.5 mg/cm^2/day, 5 days, testosterone propionate-treated castrated rats",resulted in a systemic anfiandrogenic effect
same,hydrolysis in the blank receptor solution,[3],No significant hydrolysis
"CCC1=C2CC[C@]3(C)[C@@H](O)CC[C@H]3[C@@H]2CCC1=O [Inocoterone, 6-ethyl-3αβ-methyl-1,2,3,3a,4,5,8,9,9a,9b-decahydro-7H-benz(e)inden-3-ol-7-one]","Transdermal Flux Q1, Inocoterone",[1]; [4],54.5 × 10^2 μmoles/cm^2 /5 hrs
same,"Transdermal Flux Q1, Inocoterone",[1]; [5],58.3 × 10^2 μmoles/cm^2 /5 hrs
same,"Transdermal Flux Q1, Inocoterone",[1]; [6],36.6 × 10^2 μmoles/cm^2 /5 hrs
same,"Transdermal Flux Q1, Inocoterone",[1]; [7],27.5 × 10^2 μmoles/cm^2 /5 hrs
same,"Transdermal Flux Q1, Inocoterone",[1]; [8],60.8 × 10^2 μmoles/cm^2 /5 hrs
same,"Transdermal Flux Q1, Inocoterone",[1]; vehicle Ethanol,1.1 × 10^2 μmoles/cm^2 /5 hrs
same,"Transdermal Flux Q1, Inocoterone",[2]; [9],66.2 × 10^2 μmoles/cm^2 /5 hours
same,"Transdermal Flux Q1, Inocoterone",[2]; [10],52.7 × 10^2 μmoles/cm^2 /5 hours
same,"Transdermal Flux Q1, Inocoterone",[2]; [11],62.8 × 10^2 μmoles/cm^2 /5 hours
